Key:
[1] = system: estrogen receptor of the alpha-subtype; assay: Gene expression of estrogen receptor alpha-subtype in the prostate of male castrated rat; assay type: in vivo
[2] = system: urinary bladder of ovarectomized rats; assay: Differential bladder tonus (bladder elasticity) of ovarectomized rats; assay type: in vivo, rat
Description: Following a three-month treatment of ovarectomized rats with Cimicifuga racemosa extract, the maximum pressure in the urinary bladder [in mm Hg] and the minimum pressure [in mm Hg] following relaxation of the bladder were determined by instillation of 1 ml of physiological saline solution.

estrogen receptor-beta = assay: Gene expression of estrogen receptor-beta in the prostate of male castrated rat; assay type: in vivo
estrogen receptor-alpha = assay: Expression of estrogen receptor-alpha in the urinary bladder; assay type: in vivo, rat; conditions: ovarectomized rats
From the text: In the bladder both the estrogen receptor ER-alpha and ER-beta are expressed.

IGF1 = IGF1 gene expression in the prostate of castrated male rats; assay type: in vivo, rat
rat prostate = assay: In-vivo experiments in the rat prostate in the whole-body model; conditions: castrated rat

Compound: C[C@]12CC[C@@H]3c4ccc(O)cc4CC[C@H]3[C@@H]1CC[C@@H]2O [estradiol, 17β-estradiol]
- gene expression of the estrogen receptor of the alpha-subtype in the prostate [1]: significantly inhibit
- differential pressure between maximum and minimum pressure (bladder elasticity) ([2]; three-month treatment, instillation of 1 ml physiological saline, in comparison with placebo controls): most effective substance
- gene expression of the estrogen receptor-beta in the prostate (estrogen receptor-beta): without having an effect
- expression of the estrogen receptor-alpha in the urinary bladder (estrogen receptor-alpha): regulate down

Compound: C[C@]12CC[C@H]3[C@@H](CCC4=CC(=O)CC[C@@]43C)[C@@H]1CC[C@@H]2O [testosterone]
- gene expression of the growth factor IGF1 in the prostate (IGF1): regulated up
- prostate regression induced by castration (rat prostate): could be antagonized

Compound: O=C(c1ccc(OCN2CCCCC2)cc1)c1c(-c2ccc(O)cc2)sc2cc(O)ccc12 [Raloxifen]
- differential pressure between maximum and minimum pressure (bladder elasticity) ([2]; highest Cimicifuga dose 400 mg/kg/d, compared with Raloxifen): comparable
